Measured values published in patent EP0337503B1, “Fumigation methods and compositions” (Entek Corporation, priority 1983, dated 1984).

Legend:
nematode larvae = assay: In-vitro nematocidal test: larvae treated in aqueous suspension, injected into root zone of tomato plants, gall count; format: in vivo, Meloidogyne incognita; conditions: larvae treated 1 hour; for Gall Count, replicate 2: control 88; for Gall Count, Mean: control 89; for Gall Count, replicate 1: control 90
Protocol: The procedure of Example 2 is repeated except that potassium tetrathiocarbonate is substituted for stabilized ammonium tetrathiocarbonate and an in-vitro nematocidal test is used. In the in-vitro test, the nematode larvae are treated in aqueous suspension for 1 hour at the concentrations of fumigant given in the following table, washed twice with water, and injected into the active root zone of the tomato plants. After thirty days the roots are harvested, examined for galling, giving the results summarized below.

[1] = Storage stability: loss of ability of aqueous solutions to generate carbon disulfide upon contact with strong acid; format: physicochemical; conditions: aqueous solutions of tetrathiocarbonate salts, about 14 to about 16 percent by weight carbon disulfide equivalent, air-tight glass containers, 49° C.
Protocol: Various tetrathiocarbonate salts are evaluated for storage stability by measuring the loss of the ability of aqueous solutions thereof to generate carbon disulfide upon contact with strong acid. Aqueous solutions of the salts listed in the following table, having an equivalent of from about 14 to about 16 percent by weight carbon disulfide, are stored in air-tight glass containers at a temperature of 49° C.

Verticillium dahliae = assay: Fungicidal test, radial growth of mycelia colonies; format: cell-based
Protocol: (§1) Thiocarbonate solutions are used in a test of their fungicidal properties. Cultures of four plant pathogenic fungi are grown upon potato dextrose agar at room temperature, in diffuse natural lighting. After one week, square blocks having 2 millimeter sides are cut from the edges of actively growing mycelia spots on the agar.
(§2) The blocks are immersed in sterile deionized water, as a control, or in dilutions of thiocarbonate solutions using the sterile water, in a closed container. Subsequently, the blocks are removed and placed upon agar in clean plates, and mycelia are allowed to grow for one week.
(§3) Radial growth of mycelia colonies is measured for each of the six to eight replicate plates used for a particular fungus, and average colony radius is calculated. Percent control is defined by the following equation: Percent control =[1-((Average radius of treated plates)/(Average radius of control plates))]x100 [formula]
(§4) Concentrations given for solutions used to treat the agar blocks are expressed in grams of thiocarbonate solution per liter of diluted solution.

Phytophthora cinnamomi = assay: Fungicidal test, radial growth of mycelia colonies; format: cell-based
Protocol: as §1, §2, §3, §4

Sclerotium rolfsii = assay: Fungicidal test, radial growth of mycelia colonies; format: cell-based
Protocol: as §1, §2, §3, §4

Fusarium oxysporum = assay: Fungicidal test, radial growth of mycelia colonies; format: cell-based
Protocol: as §1, §2, §3, §4

[2] = Decomposition in sandy loam soil at different moisture, CS2 in air space by gas chromatography; format: physicochemical; conditions: hours to maximum CS2 concentration in the air space
Protocol: A sandy loam soil is placed in 1-liter glass bottles, fitted with stoppers having fluorocarbon liners and silicone rubber septa, to give a soil depth of about 4 cm. […] Thiocarbonate solution or carbon disulfide is injected near the bottom of the soil layer, the bottles are promptly sealed, and the air space in the bottles is sampled at intervals with a syringe, for gas chromatographic analysis of CS2. Results are summarized below, wherein degradation time is the number of hours required to achieve the maximum CS2 concentration in the air space.

[3] = test system: root-knot nematode larvae (Meloidogyne incognita); assay: Greenhouse nematocide experiment with tomato plants, soil drench, root gall count; format: in vivo; conditions: 30 days; for Gall Counts, replicate 3: control 1; for Gall Counts, Mean: control 4.0; for Gall Counts, replicate 2: control 7; for Gall Counts, replicate 1: control 4
Protocol: In the experiment, thirty containers are used, each containing about 500 grams of sterilized sandy loam soil. Each container contains one tomato plant. Each container is injected with four 5-milliliter portions of extract from nematode-infested pepper roots, one inch below the soil surface, producing an initial population of 2000 root-knot nematode larvae (Meloidogyne incognita) per container.
Ten treatments are replicated three times, each treatment consisting of drenching the soil with a solution containing the fumigant to provide the dosage of CS2 given in the following table. The solutions are diluted with sufficient water to saturate the soil. The treatments include calcium tetrathiocarbonate, stabilized ammonium tetrathiocarbonate, and carbon disulfide at three levels, plus an untreated control. After drenching, each container is allowed to stand at ambient conditions. The plants are harvested after 30 days of growth, and soil is removed from the roots by a gentle washing with water. By use of a magnifying glass, the number of root galls is counted on each plant.
Results are summarized below, wherein the "Application" represents milligrams of treatment per kilogram of soil, calculated as the thiocarbonate salt and the equivalent carbon disulfide. Gall counts are mean values from the three replicates.

[4] = Effect of pH on production of CS2 from thiocarbonates in citrate-phosphate buffers, gas chromatography of air; format: physicochemical
Protocol: Pure carbon disulfide is also injected, for comparison. A syringe is used to periodically sample air in the bottle, and the air is analyzed by gas chromatography.

[5] = 50 ppm salt (6.3 ppm CS2 equiv. CaCS4; 6.5 ppm K2CS4)
[6] = 100 ppm salt (12.5 ppm CS2 equiv. CaCS4; 13 ppm K2CS4)
[7] = 150 ppm salt (18.8 ppm CS2 equiv. CaCS4; 19.5 ppm K2CS4)
[8] = 1 g/l, listed as K2CS4 (9.43%CS2)
[9] = 10 g/l, listed as K2CS4 (9.43%CS2)
[10] = Soil Moisture 0 % of Saturation
[11] = Soil Moisture 50 % of Saturation
[12] = Soil Moisture 100 % of Saturation
[13] = 100 g/l thiocarbonate solution per liter of diluted solution
[14] = highest application: 638/89 ppm ((NH4)2CS4·(NH4)2S), 730/91 (CaCS4), 97 ppm (CS2)
[15] = lowest application: 213/30 ppm ((NH4)2CS4·(NH4)2S), 245/31 (CaCS4), 32 ppm (CS2)
[16] = middle application: 425/60 ppm ((NH4)2CS4·(NH4)2S), 490/61 (CaCS4), 65 ppm (CS2)

## S=C(S)SS [Formula K2CS4, potassium tetrathiocarbonate]
Nematode larvae; [5]
  Gall Count, replicate 2: 66
  Gall Count, Mean: 49.5
  Gall Count, replicate 1: 33
Nematode larvae; [6]
  Gall Count, replicate 2: 145
  Gall Count, Mean: 171.5
  Gall Count, replicate 1: 198
Nematode larvae; [7]
  Gall Count, replicate 2: 22
  Gall Count, Mean: 35.5
  Gall Count, replicate 1: 49
[1]; listed as K^+
  Half-life (months): 2.9 months
Verticillium dahliae; [8]
  Percent Control Verticillium dahliae: 27%
Verticillium dahliae; [9]
  Percent Control Verticillium dahliae: 15%
Verticillium dahliae; 100 g/l
  Percent Control Verticillium dahliae: 100%
Phytophthora cinnamomi; [8]
  Percent Control Phytophthora cinnamomi: 56%
Phytophthora cinnamomi; [9]
  Percent Control Phytophthora cinnamomi: 68%
Phytophthora cinnamomi; 100 g/l
  Percent Control Phytophthora cinnamomi: 100%
Sclerotium rolfsii; [8]
  Percent Control Sclerotium rolfsii: 42%
Sclerotium rolfsii; [9]
  Percent Control Sclerotium rolfsii: 8%
Sclerotium rolfsii; 100 g/l
  Percent Control Sclerotium rolfsii: 100%
Fusarium oxysporum; [8]
  Percent Control Fusarium oxysporum: 8%
Fusarium oxysporum; [9]
  Percent Control Fusarium oxysporum: 10%
Fusarium oxysporum; 100 g/l thiocarbonate solution per liter of diluted solution, listed as K2CS4 (9.43%CS2)
  Percent Control Fusarium oxysporum: 76%
[2]; [10]
  Degradation Time: 2 h
[2]; [11]
  Degradation Time: 5 h
[2]; [12]
  Degradation Time: 48 h

## S=C(S)SS [NH4^+, ammonium tetrathiocarbonate]
[1]
  Half-life (months): 0.17 months

## S=C(S)SS [Na2CS4 (10.6%CS2), sodium tetrathiocarbonate]
[1]; listed as Na^+
  Half-life (months): 3.0 months
Verticillium dahliae; 1 g/l
  Percent Control Verticillium dahliae: 23%
Verticillium dahliae; Verticillium dahliae, 168 h, 10 g/l, read-out: Percent Control Verticillium dahliae
  inhibition of growth: 26%
Verticillium dahliae; Verticillium dahliae, 168 h, 100 g/l, read-out: Percent Control Verticillium dahliae
  inhibition of growth at 100000 µg/mL: 100%
Phytophthora cinnamomi; 10 g/l
  Percent Control Phytophthora cinnamomi: 37%
Phytophthora cinnamomi; Phytophthora cinnamomi, 168 h, 100 g/l, read-out: Percent Control Phytophthora cinnamomi
  inhibition of growth at 100000 µg/mL: 100%
Sclerotium rolfsii; 10 g/l
  Percent Control Sclerotium rolfsii: 100%
Sclerotium rolfsii; Agroathelia rolfsii, 168 h, 100 g/l, read-out: Percent Control Sclerotium rolfsii
  inhibition of growth at 100000 µg/mL: 100%
Fusarium oxysporum; 1 g/l
  Percent Control Fusarium oxysporum: 4%
Fusarium oxysporum; 10 g/l
  Percent Control Fusarium oxysporum: 6%
Fusarium oxysporum; [13]
  Percent Control Fusarium oxysporum: 100%

## stabilized ammonium tetrathiocarbonate [(NH4)2CS4·(NH4)2S]
[3]; [14]
  Gall Counts, replicate 3: 2
  Gall Counts, Mean: 4.3
  Gall Counts, replicate 2: 5
[3]; highest application: 638 ppm salt/89 ppm Eq. CS2 ((NH4)2CS4·(NH4)2S), 730/91 (CaCS4), 97 ppm (CS2)
  Gall Counts, replicate 1: 6
[3]; [15]
  Gall Counts, replicate 3: 3
  Gall Counts, Mean: 5.0
  Gall Counts, replicate 2: 7
[3]; lowest application: 213 ppm salt/30 ppm Eq. CS2 ((NH4)2CS4·(NH4)2S), 245/31 (CaCS4), 32 ppm (CS2)
  Gall Counts, replicate 1: 5
[3]; [16]
  Gall Counts, replicate 3: 6
  Gall Counts, Mean: 10.0
  Gall Counts, replicate 2: 15
[3]; middle application: 425 ppm salt/60 ppm Eq. CS2 ((NH4)2CS4·(NH4)2S), 490/61 (CaCS4), 65 ppm (CS2)
  Gall Counts, replicate 1: 9
Verticillium dahliae; 1 g/l
  Percent Control Verticillium dahliae: 41%
Verticillium dahliae; 10 g/l
  Percent Control Verticillium dahliae: 81%
Verticillium dahliae; 100 g/l
  Percent Control Verticillium dahliae: 91%
Phytophthora cinnamomi; 1 g/l
  Percent Control Phytophthora cinnamomi: 97%
Phytophthora cinnamomi; 10 g/l
  Percent Control Phytophthora cinnamomi: 74%
Phytophthora cinnamomi; 100 g/l
  Percent Control Phytophthora cinnamomi: 100%
Sclerotium rolfsii; 1 g/l
  Percent Control Sclerotium rolfsii: 49%
Sclerotium rolfsii; 10 g/l
  Percent Control Sclerotium rolfsii: 93%
Sclerotium rolfsii; 100 g/l
  Percent Control Sclerotium rolfsii: 100%
Fusarium oxysporum; 1 g/l
  Percent Control Fusarium oxysporum: 70%
Fusarium oxysporum; 10 g/l
  Percent Control Fusarium oxysporum: 100%
Fusarium oxysporum; [13]
  Percent Control Fusarium oxysporum: 100%
[2]; [10]
  Degradation Time: 2 h
[2]; [11]
  Degradation Time: 3 h
[2]; [12]
  Degradation Time: 48 h
[4]; pH 5.2, 125 milligrams per liter of thiocarbonate ion
  Half-life (minutes) for production of carbon disulfide: 1 min
[4]; pH 6.0, 125 milligrams per liter of thiocarbonate ion
  Half-life (minutes) for production of carbon disulfide: 1 min
[4]; pH 7.0, 125 milligrams per liter of thiocarbonate ion
  Half-life (minutes) for production of carbon disulfide: 2.1 min
[4]; pH 8.0, 125 milligrams per liter of thiocarbonate ion, CaCS4 values above pH 7 called unreliable
  Half-life (minutes) for production of carbon disulfide: 9.2 min
[4]; pH 9.0, 125 milligrams per liter of thiocarbonate ion, CaCS4 values above pH 7 called unreliable
  Half-life (minutes) for production of carbon disulfide: 26.1 min
